Test results published in PubChem BioAssay (NCI).
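Grown in 96-well plates, cells were treated for 48 hours with each compound at five concentrations. Insufficient inhibition: endpoint recorded as highest concentration tested. Abbreviation: GI50, concentration required for 50% inhibition of growth. At the TGI there is no net growth.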

How the values were obtained:
Assay in all cases: DTP human tumour cell line panel, 48 h
HCT-116 colon = system: HCT-116 colon
A498 renal = system: A498 renal
TK-10 renal = system: TK-10 renal
SF-295 CNS = system: SF-295 CNS
RXF 393 renal = system: RXF 393 renal
CCRF-CEM leukemia = system: CCRF-CEM leukemia
MDA-MB-231 breast = system: MDA-MB-231 breast
MCF7 breast = system: MCF7 breast
BT-549 breast = system: BT-549 breast
MOLT-4 leukemia = system: MOLT-4 leukemia
SR leukemia = system: SR leukemia
NCI-H226 lung = system: NCI-H226 lung
LOX IMVI melanoma = system: LOX IMVI melanoma
786-0 renal = system: 786-0 renal
SNB-19 CNS = system: SNB-19 CNS
SNB-75 CNS = system: SNB-75 CNS
T-47D breast = system: T-47D breast
ACHN renal = system: ACHN renal
KM12 colon = system: KM12 colon
HS 578T breast = system: HS 578T breast
HCC-2998 colon = system: HCC-2998 colon
UACC-257 melanoma = system: UACC-257 melanoma
NCI-H460 lung = system: NCI-H460 lung
RPMI-8226 leukemia = system: RPMI-8226 leukemia
SW-620 colon = system: SW-620 colon
OVCAR-4 ovarian = system: OVCAR-4 ovarian
U251 CNS = system: U251 CNS
UO-31 renal = system: UO-31 renal
SF-268 CNS = system: SF-268 CNS
A549 NSCLC = system: A549 NSCLC
IGROV1 ovarian = system: IGROV1 ovarian
HOP-92 NSCLC = system: HOP-92 NSCLC
OVCAR-5 ovarian = system: OVCAR-5 ovarian
SN12C renal = system: SN12C renal
NCI/ADR-RES ovarian = system: NCI/ADR-RES ovarian
MALME-3M melanoma = system: MALME-3M melanoma
OVCAR-3 ovarian = system: OVCAR-3 ovarian
NCI-H23 lung = system: NCI-H23 lung
SK-MEL-28 melanoma = system: SK-MEL-28 melanoma
HT29 colon = system: HT29 colon
SK-OV-3 ovarian = system: SK-OV-3 ovarian
HL-60(TB) leukemia = system: HL-60(TB) leukemia
MDA-MB-435 = system: MDA-MB-435
PC-3 prostate = system: PC-3 prostate
K-562 leukemia = system: K-562 leukemia
SF-539 CNS = system: SF-539 CNS
SK-MEL-5 melanoma = system: SK-MEL-5 melanoma
UACC-62 melanoma = system: UACC-62 melanoma
EKVX NSCLC = system: EKVX NSCLC
SK-MEL-2 melanoma = system: SK-MEL-2 melanoma
M14 melanoma = system: M14 melanoma
COLO 205 colon = system: COLO 205 colon
HOP-62 NSCLC = system: HOP-62 NSCLC
NCI-H522 lung = system: NCI-H522 lung
HCT-15 colon = system: HCT-15 colon
OVCAR-8 ovarian = system: OVCAR-8 ovarian

For `CC[C@H](C)[C@H]1NC(=O)[C@@H]([C@H](O)C(C)C)NC(=O)[C@@H](C)N(C)C(=O)[C@H](C)N(C)C(=O)[C@H](CC(C)C)NC(=O)[C@H](CC(C)C)N(C)C(=O)[C@H](C)N(C)C1=O`, the GI50 (HCT-116 colon) was 198 nM, the TGI (HCT-116 colon) was > 14300 nM and the GI50 (A498 renal) was 468 nM. For the same compound, the TGI (A498 renal) was 5330 nM, the GI50 (TK-10 renal) was 276 nM and the TGI (TK-10 renal) was 9720 nM. It also gave a GI50 (SF-295 CNS) of 319 nM, a TGI (SF-295 CNS) of 9170 nM and a GI50 (RXF 393 renal) of 256 nM. The TGI (RXF 393 renal) was 1900 nM, the GI50 (CCRF-CEM leukemia) was 562 nM and the TGI (CCRF-CEM leukemia) was > 14300 nM. For the same compound, the GI50 (MDA-MB-231 breast) was 507 nM, the TGI (MDA-MB-231 breast) was > 14300 nM and the GI50 (MCF7 breast) was 192 nM. For the same compound, the TGI (MCF7 breast) was > 14300 nM, the GI50 (BT-549 breast) was 436 nM and the TGI (BT-549 breast) was 8460 nM. For the same compound, the GI50 (MOLT-4 leukemia) was 512 nM, the TGI (MOLT-4 leukemia) was > 14300 nM and the GI50 (SR leukemia) was 526 nM. The TGI (SR leukemia) was > 14300 nM, the GI50 (NCI-H226 lung) was 456 nM and the TGI (NCI-H226 lung) was 12400 nM. The GI50 (LOX IMVI melanoma) was 416 nM, the TGI (LOX IMVI melanoma) was > 14300 nM and the GI50 (786-0 renal) was 267 nM. For the same compound, the TGI (786-0 renal) was > 14300 nM, the GI50 (SNB-19 CNS) was 266 nM and the TGI (SNB-19 CNS) was > 14300 nM. For the same compound, the GI50 (SNB-75 CNS) was 280 nM, the TGI (SNB-75 CNS) was > 14300 nM and the GI50 (T-47D breast) was 164 nM. The TGI (T-47D breast) was 1150 nM, the GI50 (ACHN renal) was 401 nM and the TGI (ACHN renal) was > 14300 nM. The GI50 (KM12 colon) was 326 nM, the TGI (KM12 colon) was > 14300 nM and the GI50 (HS 578T breast) was 261 nM. The TGI (HS 578T breast) was 4750 nM, the GI50 (HCC-2998 colon) was 531 nM and the TGI (HCC-2998 colon) was > 14300 nM. The GI50 (UACC-257 melanoma) was 451 nM, the TGI (UACC-257 melanoma) was > 14300 nM and the GI50 (NCI-H460 lung) was 170 nM. It also gave a TGI (NCI-H460 lung) of 2240 nM, a GI50 (RPMI-8226 leukemia) of 446 nM and a TGI (RPMI-8226 leukemia) of 5970 nM. For the same compound, the GI50 (SW-620 colon) was 327 nM, the TGI (SW-620 colon) was > 14300 nM and the GI50 (OVCAR-4 ovarian) was 409 nM. For the same compound, the TGI (OVCAR-4 ovarian) was > 14300 nM, the GI50 (U251 CNS) was 265 nM and the TGI (U251 CNS) was > 14300 nM. For the same compound, the GI50 (UO-31 renal) was 383 nM, the TGI (UO-31 renal) was > 14300 nM and the GI50 (SF-268 CNS) was 276 nM. The TGI (SF-268 CNS) was > 14300 nM, the GI50 (A549 NSCLC) was 257 nM and the TGI (A549 NSCLC) was > 14300 nM. For the same compound, the GI50 (IGROV1 ovarian) was 276 nM, the TGI (IGROV1 ovarian) was > 14300 nM and the GI50 (HOP-92 NSCLC) was 397 nM. It also gave a TGI (HOP-92 NSCLC) of 12100 nM, a GI50 (OVCAR-5 ovarian) of 367 nM and a TGI (OVCAR-5 ovarian) of 13300 nM. For the same compound, the GI50 (SN12C renal) was 221 nM, the TGI (SN12C renal) was > 14300 nM and the GI50 (NCI/ADR-RES ovarian) was 2300 nM. The TGI (NCI/ADR-RES ovarian) was > 14300 nM, the GI50 (MALME-3M melanoma) was 286 nM and the TGI (MALME-3M melanoma) was 10500 nM. For the same compound, the GI50 (OVCAR-3 ovarian) was 390 nM, the TGI (OVCAR-3 ovarian) was > 14300 nM and the GI50 (NCI-H23 lung) was 272 nM. The TGI (NCI-H23 lung) was > 14300 nM, the GI50 (SK-MEL-28 melanoma) was 223 nM and the TGI (SK-MEL-28 melanoma) was 1760 nM. The GI50 (HT29 colon) was 257 nM, the TGI (HT29 colon) was > 14300 nM and the GI50 (SK-OV-3 ovarian) was 418 nM. For the same compound, the TGI (SK-OV-3 ovarian) was 11100 nM, the GI50 (HL-60(TB) leukemia) was 995 nM and the TGI (HL-60(TB) leukemia) was > 14300 nM. The GI50 (MDA-MB-435) was 376 nM, the TGI (MDA-MB-435) was > 14300 nM and the GI50 (PC-3 prostate) was 364 nM. For the same compound, the TGI (PC-3 prostate) was > 14300 nM, the GI50 (K-562 leukemia) was 547 nM and the TGI (K-562 leukemia) was > 14300 nM. It also gave a GI50 (SF-539 CNS) of 409 nM, a TGI (SF-539 CNS) of 4190 nM and a GI50 (SK-MEL-5 melanoma) of 516 nM. For the same compound, the TGI (SK-MEL-5 melanoma) was > 14300 nM, the GI50 (UACC-62 melanoma) was 331 nM and the TGI (UACC-62 melanoma) was 4070 nM. The GI50 (EKVX NSCLC) was 341 nM, the TGI (EKVX NSCLC) was > 14300 nM and the GI50 (SK-MEL-2 melanoma) was 233 nM. It also gave a TGI (SK-MEL-2 melanoma) of 1270 nM, a GI50 (M14 melanoma) of 274 nM and a TGI (M14 melanoma) of 3850 nM. For the same compound, the GI50 (COLO 205 colon) was 278 nM, the TGI (COLO 205 colon) was 4390 nM and the GI50 (HOP-62 NSCLC) was 225 nM. The TGI (HOP-62 NSCLC) was 4260 nM, the GI50 (NCI-H522 lung) was 329 nM and the TGI (NCI-H522 lung) was 4700 nM. For the same compound, the GI50 (HCT-15 colon) was 538 nM, the TGI (HCT-15 colon) was > 14300 nM and the GI50 (OVCAR-8 ovarian) was 391 nM. The TGI (OVCAR-8 ovarian) was > 14300 nM.
